Reference: the NIST ThermoML archive (doi:10.1016/j.jct.2016.03.012)

Test: wn = mass fraction of the nth substance listed
Conditions: 101 kPa, Liquid; for viscosity: Capillary tube (Ostwald / Ubbelohde) method; for speed of sound: Frequency=3 MHz, Linear variable-path acoustic interferometer; for mass density: Pycnometric method

O=C[C@@H](O)[C@@H](O)[C@H](O)[C@H](O)CO [D-mannose] + O
Conditions	mass density, w1 = 0.025 [kg/m3]	mass density, w1 = 0.05 [kg/m3]	speed of sound, w1 = 0.025 [m/s]	speed of sound, w1 = 0.05 [m/s]	viscosity, w1 = 0.025 [mPa·s]	viscosity, w1 = 0.05 [mPa·s]
293.15 K	–	1017.15	1495.7	1508.3	1.074	1.146
298.15 K	–	1016.04	1506.6	1516.6	0.9514	1.007
303.15 K	1005.29	1014.73	1516.9	1525.2	0.8479	0.8925
308.15 K	1003.71	1013.21	1526.9	1534.1	0.7636	0.8017
313.15 K	1001.93	1011.5	1535.2	1542.6	0.6922	0.7265
318.15 K	999.95	1009.58	1543	1551	0.6347	0.6654
